The test system of this data set is rodent lifetime carcinogenesis bioassay, tumor incidence TD50. Nature of the data set: chronic cancer bioassays in animals – CPDB, compiled studies (AID 1745844).
The mark [1] stands for this setting: mouse, strain B6C3F1, females, in feed, site: any site (literature study), lesion: several types, types named in the paper, dosed 103 weeks, study length 105 weeks.
Setting [2] is: mouse, strain B6C3F1, males, in feed, site: any site (literature study), lesion: several types, types named in the paper, dosed 103 weeks, study length 104 weeks.

Calls of active or inactive are those of the source. The rule behind the calls is not given here.

Consider `CCC[N+](=O)[O-]`, for which the carcinogen call is “negative (inactive)” (rat, strain Long-Evans BLU:(LE), females, inhaled, site: liver, lesion: hepatocellular carcinoma, dosed 52 weeks, study length 52 weeks); “negative (inactive)” (rat, strain Long-Evans BLU:(LE), females, inhaled, site: liver, lesion: hepatocellular carcinoma, dosed 52 weeks, study length 93 weeks); “negative (inactive)” (rat, strain Long-Evans BLU:(LE), females, inhaled, site: liver, lesion: hepatocellular carcinoma, dosed 78 weeks, study length 78 weeks); “negative (inactive)” (rat, strain Long-Evans BLU:(LE), females, inhaled, site: liver, lesion: hepatocellular carcinoma, dosed 93 weeks, study length 93 weeks); “negative (inactive)” (rat, strain Long-Evans BLU:(LE), males, inhaled, site: liver, lesion: hepatocellular carcinoma, dosed 52 weeks, study length 52 weeks); “negative (inactive)” (rat, strain Long-Evans BLU:(LE), males, inhaled, site: liver, lesion: hepatocellular carcinoma, dosed 52 weeks, study length 93 weeks). Besides, the carcinogen call reads like this: (rat, strain Long-Evans BLU:(LE), males, inhaled, site: liver, lesion: hepatocellular carcinoma, dosed 78 weeks, study length 78 weeks) “negative (inactive)”; (rat, strain Long-Evans BLU:(LE), males, inhaled, site: liver, lesion: hepatocellular carcinoma, dosed 93 weeks, study length 93 weeks) “negative (inactive)”. The TD50 (commonly the dose at which the toxic effect under study appears in half of the subjects) (rat, strain Sprague-Dawley, males, by gavage, site: liver, lesion: hepatocellular adenoma, dosed 26 weeks, study length 77 weeks) is 0.872 mg/kg/day (inactive).
For `CCOC(=O)N(CC)N=O`, the TD50 was 0.0784 mg/kg/day (rat, strain Donryu, females, in drinking water, site: any site (literature study), lesion: several types, types named in the paper, dosed 51 weeks, study length 60 weeks); 0.555 mg/kg/day (rat, strain Donryu, females, in drinking water, site: duodenum, lesion: adenocarcinoma, dosed 51 weeks, study length 60 weeks); 0.473 mg/kg/day (rat, strain Donryu, females, in drinking water, site: esophagus, lesion: papilloma, dosed 51 weeks, study length 60 weeks); 0.54 mg/kg/day (rat, strain Donryu, females, in drinking water, site: esophagus, lesion: squamous-cell carcinoma, dosed 51 weeks, study length 60 weeks); 0.508 mg/kg/day (rat, strain Donryu, females, in drinking water, site: forestomach, lesion: papilloma, dosed 51 weeks, study length 60 weeks); 0.248 mg/kg/day (rat, strain Donryu, females, in drinking water, site: forestomach, lesion: squamous-cell carcinoma, dosed 51 weeks, study length 60 weeks). In addition, the TD50 by setting is: (rat, strain Donryu, females, in drinking water, site: several sites, sites named in the paper, lesion: papilloma, dosed 51 weeks, study length 60 weeks) 0.339 mg/kg/day; (rat, strain Donryu, females, in drinking water, site: several sites, sites named in the paper, lesion: squamous-cell carcinoma, dosed 51 weeks, study length 60 weeks) 0.164 mg/kg/day; (rat, strain F344/DuCrj, females, in drinking water, site: any site (literature study), lesion: one or several types, types not named, dosed 97 weeks, study length 112 weeks) 0.135 mg/kg/day; (rat, strain F344/DuCrj, females, in drinking water, site: esophagus, lesion: papilloma, dosed 97 weeks, study length 112 weeks) 0.514 mg/kg/day; (rat, strain F344/DuCrj, females, in drinking water, site: esophagus, lesion: squamous-cell carcinoma, dosed 97 weeks, study length 112 weeks) 0.139 mg/kg/day; (rat, strain F344/DuCrj, females, in drinking water, site: forestomach, lesion: papilloma, dosed 97 weeks, study length 112 weeks) 0.0796 mg/kg/day. Further, the TD50 reads like this: (rat, strain F344/DuCrj, females, in drinking water, site: forestomach, lesion: squamous-cell carcinoma, dosed 97 weeks, study length 112 weeks) 0.213 mg/kg/day; (rat, strain F344/DuCrj, females, in drinking water, site: oral cavity, lesion: papilloma, dosed 97 weeks, study length 112 weeks) 3.02 mg/kg/day; (rat, strain F344/DuCrj, females, in drinking water, site: oral cavity, lesion: squamous-cell carcinoma, dosed 97 weeks, study length 112 weeks) 0.784 mg/kg/day; (rat, strain F344/DuCrj, females, in drinking water, site: upper gastrointestinal tract, lesion: several types, types named in the paper, dosed 97 weeks, study length 112 weeks) 0.0553 mg/kg/day.
As for `OCCO`, the carcinogen call under setting [1] was “negative (inactive)”. Besides, the TD50 was 11300 mg/kg/day (mouse, strain B6C3F1, females, in feed, site: lung, lesion: alveolar/bronchiolar adenoma + alveolar/bronchiolar carcinoma, dosed 103 weeks, study length 105 weeks); 19200 mg/kg/day (inactive) (mouse, strain B6C3F1, males, in feed, site: Harderian gland, lesion: adenoma + carcinoma, dosed 103 weeks, study length 104 weeks); 9980 mg/kg/day under setting [2]; 48100 mg/kg/day (mouse, strain B6C3F1, males, in feed, site: liver, lesion: hepatocellular adenoma + hepatocellular carcinoma + neoplastic nodule, dosed 103 weeks, study length 104 weeks).
Consider `CO[C@H]1[C@@H](O)[C@@H](CO)OC(OC2C3CO[C@H]2[C@H](O)C(C)O3)[C@@H]1O` (some centres undefined), for which, under setting [1], the carcinogen call was “negative (inactive)”. The TD50 (mouse, strain B6C3F1, males, in feed, site: any site (literature study), lesion: several types, types named in the paper, dosed 103 weeks, study length 105 weeks) is 54900 mg/kg/day; the TD50 (mouse, strain B6C3F1, males, in feed, site: liver, lesion: hepatocellular adenoma + hepatocellular carcinoma + neoplastic nodule, dosed 103 weeks, study length 105 weeks) worked out at 33100 mg/kg/day; the TD50 (mouse, strain B6C3F1, males, in feed, site: liver, lesion: hepatocellular adenoma, dosed 103 weeks, study length 105 weeks) is 18800 mg/kg/day (inactive); the TD50 (mouse, strain B6C3F1, males, in feed, site: lung, lesion: alveolar/bronchiolar adenoma + alveolar/bronchiolar carcinoma, dosed 103 weeks, study length 105 weeks) was determined as 102000 mg/kg/day; the TD50 (rat, strain Fischer 344, females, in feed, site: adrenal gland, lesion: cortical adenoma, dosed 103 weeks, study length 105 weeks) is 25800 mg/kg/day (inactive); the TD50 (rat, strain Fischer 344, males, in feed, site: any site (literature study), lesion: several types, types named in the paper, dosed 103 weeks, study length 105 weeks) was 39300 mg/kg/day (inactive). Also, where the note is “rat, strain Fischer 344, males, in feed, site: liver, lesion: hepatocellular adenoma + hepatocellular carcinoma + neoplastic nodule, dosed 103 weeks, study length 105 weeks”, the TD50 was 25900 mg/kg/day.
On to `CC[C@H]1OC(=O)[C@H](C)[C@@H](O[C@H]2C[C@@](C)(OC)[C@@H](O)[C@H](C)O2)[C@H](C)[C@@H](O[C@@H]2O[C@H](C)C[C@H](N(C)C)[C@H]2O)[C@](C)(O)C[C@@H](C)C(=O)[C@H](C)[C@@H](O)[C@]1(C)O`, for which the carcinogen call is “negative (inactive)” (mouse, strain B6C3F1, females, in feed, site: any site (literature study), lesion: several types, types named in the paper, dosed 103 weeks, study length 104 weeks); “negative (inactive)” under setting [2]; “negative (inactive)” (rat, strain Fischer 344, females, in feed, site: any site (literature study), lesion: several types, types named in the paper, dosed 103 weeks, study length 104 weeks). Further, the TD50 (rat, strain Fischer 344, females, in feed, site: liver, lesion: hepatocellular adenoma + hepatocellular carcinoma + neoplastic nodule, dosed 103 weeks, study length 104 weeks) worked out at 5850 mg/kg/day; the TD50 (rat, strain Fischer 344, males, in feed, site: any site (literature study), lesion: several types, types named in the paper, dosed 103 weeks, study length 104 weeks) was 2020 mg/kg/day (inactive); the TD50 (rat, strain Fischer 344, males, in feed, site: liver, lesion: hepatocellular adenoma + hepatocellular carcinoma + neoplastic nodule, dosed 103 weeks, study length 104 weeks) worked out at 3950 mg/kg/day.
